pIC50: −log10 of the molar value. Where a SMILES comes first, the peptide text is derived from it. Bridges are numbered along the chain shown (N, C = ends). [ ]: non-standard residue; d: D form. Tyr(3-NO2) = N[C@@H](Cc1ccc(O)c([N+](=O)[O-])c1)C(=O)O; Phe(3-CF3) = N[C@@H](Cc1cccc(C(F)(F)F)c1)C(=O)O; Phe(4-CF3) = N[C@@H](Cc1ccc(C(F)(F)F)cc1)C(=O)O; Phe(3-OMe) = COc1cccc(C[C@H](N)C(=O)O)c1; Phe(2-CN) = N#Cc1ccccc1C[C@H](N)C(=O)O; 1Nal = N[C@@H](Cc1cccc2ccccc12)C(=O)O; 2Nal = N[C@@H](Cc1ccc2ccccc2c1)C(=O)O; Phe(2-F) = N[C@@H](Cc1ccccc1F)C(=O)O; hTyr = N[C@@H](CCc1ccc(O)cc1)C(=O)O; hArg = N=C(N)NCCCC[C@H](N)C(=O)O; 4Pal = N[C@@H](Cc1ccncc1)C(=O)O
Biological target: T1, Coagulation factor XII (Homo sapiens, UniProt P00748)
T1 sequence (P00748 whole entry): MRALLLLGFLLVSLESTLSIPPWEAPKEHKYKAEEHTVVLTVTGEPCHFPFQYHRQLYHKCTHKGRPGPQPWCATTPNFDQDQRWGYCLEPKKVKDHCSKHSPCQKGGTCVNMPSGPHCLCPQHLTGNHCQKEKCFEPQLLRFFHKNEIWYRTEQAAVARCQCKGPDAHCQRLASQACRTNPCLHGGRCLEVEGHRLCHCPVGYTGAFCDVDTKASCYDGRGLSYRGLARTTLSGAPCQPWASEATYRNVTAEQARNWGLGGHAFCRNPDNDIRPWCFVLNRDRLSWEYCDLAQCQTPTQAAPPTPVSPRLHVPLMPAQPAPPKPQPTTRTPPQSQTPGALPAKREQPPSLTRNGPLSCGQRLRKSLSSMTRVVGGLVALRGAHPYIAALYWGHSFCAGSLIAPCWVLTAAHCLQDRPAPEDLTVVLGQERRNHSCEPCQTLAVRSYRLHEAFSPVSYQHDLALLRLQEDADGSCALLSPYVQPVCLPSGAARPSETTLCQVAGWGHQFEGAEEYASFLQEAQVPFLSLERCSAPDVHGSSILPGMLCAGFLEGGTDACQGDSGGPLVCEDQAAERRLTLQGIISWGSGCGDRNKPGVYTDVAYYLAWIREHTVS
Test: Inhibition of human factor 12a using H-D-Pro-Phe-Arg-p-nitroanilide as chromogenic substrate assessed as liberation of p-nitroaniline measured every 5 mins for 60 min by multimode plate reader analysis

Row | pIC50 | Compound
1 | 7.17 | CC(C)C[C@@H]1NC(=O)[C@H](Cc2ccc(O)cc2)NC(=O)CSC[C@@H](C(N)=O)NC(=O)CNC(=O)CNC(=O)[C@H](CCCNC(=N)N)NC(=O)[C@H](CC(=O)O)NC(=O)[C@H](CCCCN)NC(=O)[C@@H]2CCCN2C(=O)[C@H](CCCNC(=N)N)NC(=O)[C@H](Cc2cccc3ccccc23)NC(=O)[C@H](CCCNC(=N)N)NC1=O ({CH2CO}-YLR[1Nal]RPKDRGGC-NH2; thioether N-12)
2 | 3.07 | CC(C)C[C@@H]1NC(=O)[C@H](C)NC(=O)[C@H](CC(C)C)NC(=O)[C@H](Cc2ccc(O)cc2)NC(=O)CSC[C@@H](C(N)=O)NC(=O)CNC(=O)CNC(=O)[C@H](CCC(N)=O)NC(=O)[C@H](CC(N)=O)NC(=O)[C@H]([C@@H](C)O)NC(=O)[C@@H]2CCCN2C(=O)[C@H](CCCCN)NC1=O ({CH2CO}-YLALKPTNQGGC-NH2; thioether N-12)
3 | 6.46 | CC(C)C[C@@H]1NC(=O)[C@H](Cc2ccccc2F)NC(=O)CSC[C@@H](C(N)=O)NC(=O)CNC(=O)CNC(=O)[C@H](CCCNC(=N)N)NC(=O)[C@H](CC(=O)O)NC(=O)[C@H](CCCCN)NC(=O)[C@@H]2CCCN2C(=O)[C@H](CCCNC(=N)N)NC(=O)[C@H](Cc2ccccc2)NC(=O)[C@H](CCCNC(=N)N)NC1=O ({CH2CO}-[Phe(2-F)]LRFRPKDRGGC-NH2; thioether N-12)
4 | 6.33 | CC(C)C[C@@H]1NC(=O)[C@H](Cc2ccc(O)cc2)NC(=O)CSC[C@@H](C(N)=O)NC(=O)CNC(=O)CNC(=O)[C@H](CCCNC(=N)N)NC(=O)[C@H](CC(=O)O)NC(=O)[C@H](CCCCN)NC(=O)[C@@H]2CCCN2C(=O)[C@H](CCCCNC(=N)N)NC(=O)[C@H](Cc2ccccc2)NC(=O)[C@H](CCCNC(=N)N)NC1=O ({CH2CO}-YLRF[hArg]PKDRGGC-NH2; thioether N-12)
5 | 6.92 | CC(C)C[C@@H]1NC(=O)[C@H](Cc2ccc(O)cc2)NC(=O)CSC[C@@H](C(N)=O)NC(=O)CNC(=O)CNC(=O)[C@H](CCCNC(=N)N)NC(=O)[C@H](CC(=O)O)NC(=O)[C@H](CCCCN)NC(=O)[C@@H]2CCCN2C(=O)[C@H](CCCNC(=N)N)NC(=O)[C@H](Cc2ccccc2C#N)NC(=O)[C@H](CCCNC(=N)N)NC1=O ({CH2CO}-YLR[Phe(2-CN)]RPKDRGGC-NH2; thioether N-12)
6 | 6.25 | CC(C)C[C@@H]1NC(=O)[C@H](Cc2ccc(O)cc2)NC(=O)CSC[C@@H](C(N)=O)NC(=O)CNC(=O)CNC(=O)[C@H](CCCNC(=N)N)NC(=O)[C@H](CC(=O)O)NC(=O)[C@H](CCCCN)NC(=O)[C@@H]2CCCN2C(=O)[C@H](CCCNC(=N)N)NC(=O)[C@H](CCc2ccc(O)cc2)NC(=O)[C@H](CCCNC(=N)N)NC1=O ({CH2CO}-YLR[hTyr]RPKDRGGC-NH2; thioether N-12)
7 | 5.29 | CC(C)C[C@@H]1NC(=O)[C@H](Cc2ccc(O)cc2)NC(=O)CSC[C@@H](C(N)=O)NC(=O)CNC(=O)CNC(=O)[C@H](CCCNC(=N)N)NC(=O)[C@H](CC(=O)O)NC(=O)[C@H](CCCCN)NC(=O)[C@@H]2CCCN2C(=O)[C@H](CCCNC(=N)N)NC(=O)[C@H](C)NC(=O)[C@H](CCCNC(=N)N)NC1=O ({CH2CO}-YLRARPKDRGGC-NH2; thioether N-12)
8 | 6.92 | CC(C)C[C@@H]1NC(=O)[C@H](Cc2ccc(O)cc2)NC(=O)CSC[C@@H](C(N)=O)NC(=O)CNC(=O)CNC(=O)[C@H](CCCNC(=N)N)NC(=O)[C@H](CC(=O)O)NC(=O)[C@H](CCCCN)NC(=O)[C@@H]2CCCN2C(=O)[C@H](CCCNC(=N)N)NC(=O)[C@H](Cc2ccncc2)NC(=O)[C@H](CCCNC(=N)N)NC1=O ({CH2CO}-YLR[4Pal]RPKDRGGC-NH2; thioether N-12)
9 | 3.54 | C[C@@H]1NC(=O)[C@H](Cc2ccc(O)cc2)NC(=O)CSC[C@@H](C(N)=O)NC(=O)CNC(=O)CNC(=O)[C@H](CCCNC(=N)N)NC(=O)[C@H](CC(=O)O)NC(=O)[C@H](CCCCN)NC(=O)[C@@H]2CCCN2C(=O)[C@H](CCCNC(=N)N)NC(=O)[C@H](Cc2ccccc2)NC(=O)[C@H](CCCNC(=N)N)NC1=O ({CH2CO}-YARFRPKDRGGC-NH2; thioether N-12)
10 | 6.92 | COc1cccc(C[C@@H]2NC(=O)[C@H](CCCNC(=N)N)NC(=O)[C@H](CC(C)C)NC(=O)[C@H](Cc3ccc(O)cc3)NC(=O)CSC[C@@H](C(N)=O)NC(=O)CNC(=O)CNC(=O)[C@H](CCCNC(=N)N)NC(=O)[C@H](CC(=O)O)NC(=O)[C@H](CCCCN)NC(=O)[C@@H]3CCCN3C(=O)[C@H](CCCNC(=N)N)NC2=O)c1 ({CH2CO}-YLR[Phe(3-OMe)]RPKDRGGC-NH2; thioether N-12)
11 | 6.00 | CC(C)C[C@@H]1NC(=O)[C@H](Cc2ccc(O)cc2)NC(=O)CSC[C@@H](C(N)=O)NC(=O)CNC(=O)CNC(=O)[C@H](C)NC(=O)[C@H](CC(N)=O)NC(=O)[C@H]([C@@H](C)O)NC(=O)[C@@H]2CCCN2C(=O)[C@H](CCCCN)NC(=O)[C@H](CC(C)C)NC(=O)[C@H](CCCNC(=N)N)NC1=O ({CH2CO}-YLRLKPTNAGGC-NH2; thioether N-12)
12 | 6.25 | COc1ccc(C[C@@H]2NC(=O)[C@H](CCCNC(=N)N)NC(=O)[C@H](CC(C)C)NC(=O)[C@H](Cc3ccc(O)cc3)NC(=O)CSC[C@@H](C(N)=O)NC(=O)CNC(=O)CNC(=O)[C@H](CCCNC(=N)N)NC(=O)[C@H](CC(=O)O)NC(=O)[C@H](CCCCN)NC(=O)[C@@H]3CCCN3C(=O)[C@H](CCCNC(=N)N)NC2=O)cc1 ({CH2CO}-YLRY(Me)RPKDRGGC-NH2; thioether N-12)
13 | 6.19 | COc1cccc(C[C@@H]2NC(=O)CSC[C@@H](C(N)=O)NC(=O)CNC(=O)CNC(=O)[C@H](CCCNC(=N)N)NC(=O)[C@H](CC(=O)O)NC(=O)[C@H](CCCCN)NC(=O)[C@@H]3CCCN3C(=O)[C@H](CCCNC(=N)N)NC(=O)[C@H](Cc3ccccc3)NC(=O)[C@H](CCCNC(=N)N)NC(=O)[C@H](CC(C)C)NC2=O)c1 ({CH2CO}-[Phe(3-OMe)]LRFRPKDRGGC-NH2; thioether N-12)
14 | 4.89 | CC(C)C[C@@H]1NC(=O)[C@H](Cc2ccc(O)cc2)NC(=O)CSC[C@@H](C(N)=O)NC(=O)CNC(=O)CNC(=O)[C@H](CCC(N)=O)NC(=O)[C@H](CC(N)=O)NC(=O)[C@H]([C@@H](C)O)NC(=O)[C@@H]2CCCN2C(=O)[C@H](CCCCN)NC(=O)[C@H](C)NC(=O)[C@H](CCCNC(=N)N)NC1=O ({CH2CO}-YLRAKPTNQGGC-NH2; thioether N-12)
15 | 4.05 | CC(C)C[C@@H]1NC(=O)[C@H](Cc2ccc(O)c([N+](=O)[O-])c2)NC(=O)CSC[C@@H](C(N)=O)NC(=O)CNC(=O)CNC(=O)[C@H](CCCNC(=N)N)NC(=O)[C@H](CC(=O)O)NC(=O)[C@H](CCCCN)NC(=O)[C@@H]2CCCN2C(=O)[C@H](CCCNC(=N)N)NC(=O)[C@H](Cc2ccccc2)NC(=O)[C@H](CCCNC(=N)N)NC1=O ({CH2CO}-[Tyr(3-NO2)]LRFRPKDRGGC-NH2; thioether N-12)
16 | 7.30 | CC(C)C[C@@H]1NC(=O)[C@H](Cc2ccc(O)cc2)NC(=O)CSC[C@@H](C(N)=O)NC(=O)CNC(=O)CNC(=O)[C@H](CCCNC(=N)N)NC(=O)[C@H](CC(=O)O)NC(=O)[C@H](CCCCN)NC(=O)[C@@H]2CCCN2C(=O)[C@H](CCCNC(=N)N)NC(=O)[C@H](Cc2ccc3ccccc3c2)NC(=O)[C@H](CCCNC(=N)N)NC1=O ({CH2CO}-YLR[2Nal]RPKDRGGC-NH2; thioether N-12)
17 | 5.42 | CC(C)C[C@@H]1NC(=O)[C@H]([C@@H](C)O)NC(=O)[C@H](Cc2ccccc2)NC(=O)[C@@H](CCCNC(=N)N)NC(=O)[C@@H](CC(C)C)NC(=O)[C@@H](Cc2ccc(O)cc2)NC(=O)CSC[C@@H](C(N)=O)NC1=O
18 | 7.03 | CC(C)C[C@@H]1NC(=O)[C@H](Cc2ccc(O)cc2)NC(=O)CSC[C@@H](C(N)=O)NC(=O)CNC(=O)CNC(=O)[C@H](CCCNC(=N)N)NC(=O)[C@H](CC(=O)O)NC(=O)[C@H](CCCCN)NC(=O)[C@@H]2CCCN2C(=O)[C@H](CCCNC(=N)N)NC(=O)[C@H](Cc2cccc(C(F)(F)F)c2)NC(=O)[C@H](CCCNC(=N)N)NC1=O ({CH2CO}-YLR[Phe(3-CF3)]RPKDRGGC-NH2; thioether N-12)
19 | 4.22 | CC(C)C[C@@H]1NC(=O)[C@H](CCCNC(=N)N)NC(=O)[C@H](CC(C)C)NC(=O)[C@H](Cc2ccc(O)cc2)NC(=O)CSC[C@@H](C(N)=O)NC(=O)CNC(=O)CNC(=O)[C@H](CCC(N)=O)NC(=O)[C@H](CC(N)=O)NC(=O)[C@H]([C@@H](C)O)NC(=O)[C@@H]2CCCN2C(=O)[C@H](C)NC1=O ({CH2CO}-YLRLAPTNQGGC-NH2; thioether N-12)
20 | 6.96 | CC(C)C[C@@H]1NC(=O)[C@H](Cc2ccc(O)cc2)NC(=O)CSC[C@@H](C(N)=O)NC(=O)CNC(=O)CNC(=O)[C@H](CCCNC(=N)N)NC(=O)[C@H](CC(=O)O)NC(=O)[C@H](CCCCN)NC(=O)[C@@H]2CCCN2C(=O)[C@H](CCCNC(=N)N)NC(=O)[C@H](Cc2ccc(C(F)(F)F)cc2)NC(=O)[C@H](CCCNC(=N)N)NC1=O ({CH2CO}-YLR[Phe(4-CF3)]RPKDRGGC-NH2; thioether N-12)
21 | 3.68 | CC(C)C[C@@H]1NC(=O)[C@H](C(C)C)NC(=O)CSC[C@@H](C(N)=O)NC(=O)CNC(=O)CNC(=O)[C@H](CCCNC(=N)N)NC(=O)[C@H](CC(=O)O)NC(=O)[C@H](CCCCN)NC(=O)[C@@H]2CCCN2C(=O)[C@H](CCCNC(=N)N)NC(=O)[C@H](Cc2ccccc2)NC(=O)[C@H](CCCNC(=N)N)NC1=O ({CH2CO}-VLRFRPKDRGGC-NH2; thioether N-12)
